Assay results published in patent publication US7084268B1, “Carbapenem compound crystals and interjection preparations” (Eisai Co., Ltd., priority 1999, dated 2006).
Structures can show the parent of a compound that is named as a salt.

Assays:
Assay type in all cases: physicochemical
[1] = Color difference after degasification of vial at various pressures and replacement by nitrogen; conditions: 80° C./1 week, n = 6
Protocol: As the monohydrate, the powdery charged preparations for injection of the novel carbapenem crystals (25 mg/vial) obtained by degasification of the air in the vial at 100, 10, 1, 0.1 and 0.01 hPa (hectopascal) respectively and subsequent replacement by nitrogen according to the method in Example 2-3 (replacement by nitrogen) were stored at 60° C. for 1 or 4 weeks (N=6) and then measured for their color difference (ΔE). The oxygen concentrations in the preparations in vials degasified at 100, 10, 1, 0.1, 0.01 hPa (hectopascal) were measured by an oxygen analyzer (RO-101, Iizima Kogyo). As the trihydrate, the powdery charged preparations of the novel carbapenem hydrochloride crystals (25 mg/vial) obtained in the method in Example 1-9 (replacement by nitrogen) were degasified in the same manner, stored at 80° C. for 1 week (N=6) and then measured for their color difference (ΔE). As the control, the powdery charged preparation of the novel carbapenem hydrochloride crystals (25 mg/vial) subjected to neither degasification nor replacement by nitrogen was used.

[2] = Storage of crystals in bottles without caps at various relative humidity, with or without oxygen absorbent; conditions: 25° C., 2 weeks, listed as trihydrate crystals, monohydrochloride trihydrate
[3] = as above; conditions: 25° C., 2 weeks; for water content (hygroscopicity): listed as trihydrate crystals, monohydrochloride trihydrate
Protocol: The novel carbapenem hydrochloride crystals were weighed in 25 mL wide-mouthed glass bottles (30 mg/bottle), and in the bottles without caps, the monohydrate was stored for 1 week at 40° C. at a relative humidity of 0%, 19.2%, 53% and 75%, and the trihydrate was stored for 2 weeks at 25° C. at a relative humidity of 11%, 33%, 51%, 75% and 93%. Then, the crystals were measured for their color difference (ΔE), water content, powdery X-ray diffraction pattern, and content of residual carbapenem. The monohydrate was also examined in the presence or absence of an oxygen absorbent (trade name: Ageless, produced by Mitsubishi Gas Chemical Co., Ltd.) during storage at each relative humidity. The oxygen absorbent makes oxygen-free conditions under which the preparation is placed.

[4] = Effect of degasification of the air in a vial and/or replacement by nitrogen (storage of powdery charged preparations); conditions: 25 mg/vial, storage at 40° C. for 1 month
Protocol: As the monohydrate crystals, the powdery charged preparation of the novel carbapenem hydrochloride crystals (25 mg/vial) obtained in the method in Example 2-3 (replacement by nitrogen), the powdery charged preparation (25 mg/vial) subjected to replacement by oxygen in place of replacement by nitrogen in Example 2-3, and the powdery charged preparation (25 mg/vial) not subjected to replacement in Example 2-2 were stored at 60° C. for 5 days (N=3) and then measured for their color difference (ΔE), water content, powdery x-ray diffraction pattern, content of residual carbapenem and HPLC impurities. As the trihydrate crystals, the powdery charged preparation of the novel carbapenem hydrochloride crystals (25 mg/vial) obtained by the method (replacement by nitrogen) in Example 1-9 and the powdery charged preparation (25 mg/vial) not subjected to replacement in Example 1-8 were stored at 40° C. for 1 month and then measured for their color difference (ΔE), water content and content of residual carbapenem. The color difference was evaluated by a color difference meter (ZE-200, Nippondenso Co., Ltd.); the water content by a Karl-Fisher moisture meter (CA-05, Mitsubishi Kagaku Kogyo); the powdery X-ray diffraction under the method and conditions in Example 1-1 or 2-1; and the content of residual carbapenem and HPLC impurities by high performance liquid chromatography (Shimadzu Corporation). The color difference (ΔE) is a parameter indicative of a change in the color of the outward appearance of crystals, and its higher value indicates a greater coloration change than at an initial stage (just after production).

[5] = Solubility in 62.5% (v/v) aqueous organic solvents, quantification in HPLC; conditions: 20° C., 30 minutes, monohydrochloride trihydrate
Protocol: The solubility of (+)-(1R,5S,6S)-6-[(R)-1-hydroxyethyl]-1-methyl-2-[(2S,4S)-2-[(3R)-pyrrolidine-3-yl-(R)-hydroxymethyl]pyrrolidine-4-yl]thio-1-carbapen-2-em-3-carboxylic acid monohydrochloride monohydrate and trihydrate in various aqueous organic solvents at a concentration of 62.5% (v/v) in water at 20° C. was determined by HPLC in the following manner.

Question: What does the source list for `C[C@@H](O)[C@H]1C(=O)N2C(C(=O)O)=C(S[C@@H]3CN[C@H]([C@H](O)[C@@H]4CCNC4)C3)[C@H](C)[C@H]12` [trihydrate, (+)-(1R,5S,6S)-6-[(R)-1-Hydroxyethyl]-1-methyl-2-[(2S,4S)-2-[(3R)-pyrrolidine-3-yl-(R)-hydroxymethyl]pyrrolidine-4-yl]thio-1-carbapen-2-em-3-carboxylic acid monohydrochloride trihydrate]?
Answer: color difference (ΔE) ([1]; control: neither degasification nor replacement by nitrogen): 10.06; color difference (ΔE) ([1]; vial degasified at 1 hPa, replaced by nitrogen): 3.62; color difference (ΔE) ([1]; vial degasified at 10 hPa, replaced by nitrogen): 3.92; color difference (ΔE) ([1]; vial degasified at 100 hPa, replaced by nitrogen): 4.90; water content (hygroscopicity) ([2]; relative humidity 11%): 11.0%; water content (hygroscopicity) ([2]; relative humidity 75%): 11.1%; water content (hygroscopicity) ([2]; relative humidity 93%): 11.4%; powdery X-ray diffraction pattern (hygroscopicity) ([3]; relative humidity 11%): no change; powdery X-ray diffraction pattern (hygroscopicity) ([3]; relative humidity 33%): no change; water content (hygroscopicity) ([3]; relative humidity 33%): 11.1%; powdery X-ray diffraction pattern (hygroscopicity) ([3]; relative humidity 51%): no change; water content (hygroscopicity) ([3]; relative humidity 51%): 11.1%; powdery X-ray diffraction pattern (hygroscopicity) ([3]; relative humidity 75%): no change; powdery X-ray diffraction pattern (hygroscopicity) ([3]; relative humidity 93%): no change; color difference (ΔE) ([4]; control (air)): 2.78; content of residual carbapenem compound ([4]; control (air)): 101.0%; water content ([4]; control (air)): 12.0%; color difference (ΔE) ([4]; gas for replacement nitrogen): 0.00; content of residual carbapenem compound ([4]; gas for replacement nitrogen): 100.2%; water content ([4]; gas for replacement nitrogen): 11.3%; solubility ([5]; 62.5% (v/v) 1-acetoxy-2-methyl ethane in water): 2850 µg/mL; solubility ([5]; 62.5% (v/v) 1-ethoxy-2-propanol in water): 3320 µg/mL; solubility ([5]; 62.5% (v/v) 1-methoxy-2-propanol in water): 3370 µg/mL; solubility ([5]; 62.5% (v/v) 2-butoxyethanol in water): 11850 µg/mL; solubility ([5]; 62.5% (v/v) 2-ethoxyethanol in water): 4360 µg/mL; solubility ([5]; 62.5% (v/v) 2-isopropoxyethanol in water): 4360 µg/mL; solubility ([5]; 62.5% (v/v) 2-methoxyethanol in water): 6390 µg/mL; solubility ([5]; 62.5% (v/v) 3-methoxy-3-methyl-1-butanol in water): 4860 µg/mL; solubility ([5]; 62.5% (v/v) 3-methoxybutanol in water): 3240 µg/mL; solubility ([5]; 62.5% (v/v) IPA (isopropyl alcohol) in water): 4740 µg/mL; solubility ([5]; 62.5% (v/v) acetonitrile in water): 12990 µg/mL; solubility ([5]; 62.5% (v/v) diethylene glycol monoethyl ether in water): 2680 µg/mL; solubility ([5]; 62.5% (v/v) diethylene glycol monomethyl ether in water): 2410 µg/mL; solubility ([5]; 62.5% (v/v) dimethyl acetamide in water): 4530 µg/mL; solubility ([5]; 62.5% (v/v) dimethyl ether in water): 1440 µg/mL; solubility ([5]; 62.5% (v/v) dimethyl formamide in water): 7310 µg/mL; solubility ([5]; 62.5% (v/v) dimethyl sulfoxide in water): 11840 µg/mL; solubility ([5]; 62.5% (v/v) ethanol in water): 6320 µg/mL; solubility ([5]; 62.5% (v/v) methanol in water): 14380 µg/mL; solubility ([5]; 62.5% (v/v) n-propanol in water): 10460 µg/mL; solubility ([5]; 62.5% (v/v) t-butanol in water): 6060 µg/mL; solubility ([5]; 62.5% (v/v) tetrahydrofuran in water): 5290 µg/mL; solubility ([5]; 62.5% (v/v) triethylene glycol monomethyl ether in water): 2470 µg/mL
